Data from US5541232A, “Treatment of multidrug resistant diseases” (Chemex Pharmaceuticals, Inc., priority 1994, dated 1996).
“Also recorded” adds a separate entry of the source. Read-outs that look alike come from different tables or passages of the source.

How the values were obtained:
normal cells = assay: toxicity to normal cells as opposed to cancer cells; type: cell-based
[1] = test system: GRC-1 multidrug resistant human cervical carcinoma cells; assay: steady state accumulation of VBL, GRC-1; type: cell-based
Protocol: At the desired time, the medium was aspirated and cells washed 5 times with ice cold PBS. Cells were digested overnight in 1N NaOH, at which time aliquots were used to determine protein content and radioactivity. The final concentration of VBL was 6 nM.
Cells were incubated for one hour with media containing either tritiated vinblastine (^3 H]VBL) alone or containing [^3 H]VBL with 50 μM masoprocol. Cells were then washed with ice cold PBS and the amount of VBL accumulated in cells was determined using a scintillation counter. In FIG. 1 each data point represents the mean of replicate experiments performed with duplicate cultures. Vertical bars are +/- S.D.

[2] = test system: KB-3-1 human cervical carcinoma cells; assay: modulation of cisplatin uptake; type: cell-based; settings: one hour, 5 μM cisplatin; FIG. 5
Protocol: Subconfluent cultures of KB-3-1 cells were incubated with [^3 H]cisplatin (cis-DDP) in culture medium or in medium containing the indicated concentrations of masoprocol as presented in FIG. 5. After one hour incubation, the medium was aspirated and the cells washed 5 times with ice cold PBS. Cells were digested overnight in 1N NaOH, at which time aliquots were used to determine protein content and radioactivity. The final concentration of cisplatin was 5 μM. Each data point represents the mean of triplicate dishes from replicate experiments. The vertical bars are +/- standard deviations.

human cancer patients = settings: cited from earlier work
[3] = test system: OVCAR3 ovarian cancer cells; assay: in vitro cytotoxicity anti tumor activity; type: cell-based; settings: Homo sapiens, read-out: IC50
SNB Glioblastoma cells = assay: in vitro cytotoxicity anti tumor activity; type: cell-based; settings: read-out: IC50
stability to oxidation = type: physicochemical; settings: for example, by air
Description: The pH of the formulation is important in assuring stability of NDGA or its analogue as well as assuring that the formulation is physiologically acceptable to the patient. […] Such oxidation can result in discoloration of the formulation rendering it unacceptable for pharmaceutical use. […] Therefore, it is preferred that if the formulation is to be exposed to oxidizing conditions the pH to be maintained below about 7 and preferably below about 6 in order to provide maximum stability for the compound against oxidation. However, if the oxidizing conditions can be avoided, for example, by storage of the formulation under an inert atmosphere such as nitrogen, a higher pH can be used. The pH of the formulation may be maintained through the use of toxicologically-acceptable buffers. Such buffers are well-known in the pharmaceutical formulation art, and include hydrochloric acid buffer, acid phthalate buffer, phosphate buffer and citric acid/sodium citrate buffer.

DLD-1 Colon cancer cells = assay: in vitro cytotoxicity anti tumor activity; type: cell-based; settings: Homo sapiens, DLD-1, 1 h; One Hour Pulse Treatment; read-out: IC50
malignant melanoma = settings: in vivo; cited from earlier work
[4] = test system: GRC-1 multidrug resistant human cervical carcinoma cells; assay: initial influx of VBL, GRC-1; type: cell-based; settings: 50 μM masoprocol added concurrently with VBL, 3 to 24 seconds; FIG. 4a
Protocol: (§1) A further test was conducted to show the effect of masoprocol on the initial influx of VBL. Cells were exposed to media containing [^3 H]VBL with and without 50 μM masoprocol. After incubation times ranging from 3 seconds to 24 seconds, the media was removed. The amount of VBL taken up by the cells was determined as described in A. The data was summarized from four replicate experiments. FIG. 4apresents the results for the GRC-1 cell line, and FIG. 4b for the KB-3-1 cell line.

[5] = test system: KB-3-1 human cervical carcinoma cells; assay: modulation of VBL toxicity (colony formation), KB-3-1; type: cell-based; settings: 25 μM masoprocol, 10 days, 37° C.
Protocol: (§2) Drug-sensitive KB-3-1 cells and the drug resistant subline (KB-GRC-1) were obtained from Dr. Igor Roninson (University of Illinois, College of Medicine, Chicago, Ill.). Cells were maintained in Dulbecco's modified Eagle's medium supplemented with 10% fetal bovine serum and 2 mM glutamine. The KB-GRC-1 cells were maintained in medium supplemented with 6 ng/ml colchicine.
(§3) To test the modulation of VBL toxicity by masoprocol, cells which had been seeded at 200-300 cells/dish were incubated in media containing various concentrations of VBL in the absence or presence of 25 μM masoprocol. After an incubation period of 10 days at 37° C. the cells were fixed and stained, and the number of colonies per dish were counted and expressed as a percent of the number of colonies formed in control conditions. 1.

CAK-1 Renal cancer cells = assay: in vitro cytotoxicity anti tumor activity; type: cell-based; settings: read-out: IC50
[6] = test system: KB-3-1 human cervical carcinoma cells; assay: initial influx of VBL, KB-3-1; type: cell-based; settings: 50 μM masoprocol added concurrently with VBL, 3 to 24 seconds; FIG. 4b
Protocol: as §1

[7] = test system: Lung (NCI-H23) cancer cells; assay: in vitro cytotoxicity anti tumor activity; type: cell-based; settings: Homo sapiens, read-out: IC50
[8] = test system: GRC-1 multidrug resistant human cervical carcinoma cells; assay: efflux of VBL, GRC-1; type: cell-based; settings: 50 μM masoprocol
Protocol: A further test was conducted to show the effect of masoprocol on the efflux of VBL from cells. Cells were incubated with [^3 H]VBL with or without 50 μM masoprocol for 2 hours. The medium was then replaced with drug-free medium. After incubation for various times, the amount of VBL remaining in the cells was determined as described above. The data was presented in terms of the percentage of VBL remaining at various efflux times compared to VBL in cells with an efflux time of zero. In FIGS. 3a and 3b, efflux is expressed as pmol VBL. In FIGS. 3c and 3d, efflux is expressed as percentage of VBL levels at time zero.

WI-38 Lung Fibroblasts = assay: in vitro cytotoxicity, normal cells; type: cell-based; settings: Homo sapiens, WI-38, 1 h; One Hour Pulse Treatment; read-out: IC50
[9] = test system: several types of cancer cells; settings: Cancer Chemotherapy National Service Center; cited from earlier work
[10] = test system: GRC-1 multidrug resistant human cervical carcinoma cells; assay: modulation of VBL toxicity (colony formation), GRC-1; type: cell-based; settings: 25 μM masoprocol, 10 days, 37° C.
Protocol: as §2, §3

[11] = test system: human breast adenocarcinoma; settings: cited from earlier work
[12] = Continuous Drug Exposure, observation at 70 hours

C[C@H](Cc1ccc(O)c(O)c1)[C@@H](C)Cc1ccc(O)c(O)c1 [Masoprocol, meso-1,4-bis (3,4-dihydroxyphenyl)-2,3-dimethylbutane]
toxicity to normal cells versus doxorubicin (normal cells): less toxic than doxorubicin
steady state accumulation of VBL, compared with verapamil ([1]; 50 μM masoprocol): comparable to that of 10 μM verapamil
steady state accumulation of VBL ([1]; one hour, masoprocol with [3H]VBL): dose-dependent increase in the steady state accumulation of VBL; also recorded: increases the steady state accumulation of VBL
increase in uptake of cisplatin [2]: about 25%
stimulation of tumor cell growth (human cancer patients; in some cases): in some cases caused stimulation of tumor cell growth
effectiveness as anticancer agent (human cancer patients; ingested tea made from creosote bush or pure NDGA): neither NDGA nor the tea were effective anticancer agents
IC50 ([3]; OVCAR-3, 1 h, One Hour Pulse Treatment): 258 µM
IC50 ([3]; OVCAR-3, Continuous Drug Exposure, observation at 70 hours): 35.9 µM
IC50 (SNB Glioblastoma cells; 1 h, One Hour Pulse Treatment): 312 µM
IC50 (SNB Glioblastoma cells; [12]): 0.08 µM
susceptibility to oxidation (stability to oxidation): susceptible to oxidation
IC50 (DLD-1 Colon cancer cells): 124 µM
result against malignant melanoma (malignant melanoma): positive result
initial VBL uptake (influx) [4]: substantial increase in initial VBL uptake; also recorded: effective modulator of initial VBL influx; also recorded: promotes the initial uptake of VBL
effect on VBL cytotoxicity / colony formation [5]: increase in the cytotoxicity of VBL; also recorded: increases the cytotoxic effect of VBL
IC50 (CAK-1 Renal cancer cells; 1 h, One Hour Pulse Treatment): 211 µM
IC50 (CAK-1 Renal cancer cells; [12]): 53.4 µM
initial VBL uptake (influx) [6]: substantial increase in initial VBL uptake; also recorded: effective modulator of initial VBL influx; also recorded: promotes the initial uptake of VBL
IC50 ([7]; NCI-H23, 1 h, One Hour Pulse Treatment): 172 µM
IC50 ([7]; NCI-H23, Continuous Drug Exposure, observation at 70 hours): 0.08 µM
modulation of VBL efflux [8]: does not modulate VBL efflux
VBL levels at efflux time zero ([8]; 2 hours, FIG. 3a): higher in masoprocol-treated cells
percent of VBL retained at various efflux time points ([8]; FIG. 3c): not affected by masoprocol treatment
modulation of VBL efflux ([8]; listed as masoprocol): does not influence the rate of efflux of VBL
IC50 (WI-38 Lung Fibroblasts): 159 µM
result in screening against cancer cells [9]: negative results
effect on VBL cytotoxicity / colony formation [10]: increase in the cytotoxicity of VBL; also recorded: increases the cytotoxic effect of VBL
effectiveness against human breast adenocarcinoma [11]: particularly effective
